Target: PICK1 (protein interacting with kinase C1), PDZ domain (Homo sapiens, UniProt Q9NRD5)
Assay: biochemical

PICK1 (protein interacting with kinase C1), PDZ domain, sequence (Q9NRD5 1-357 limits assumed): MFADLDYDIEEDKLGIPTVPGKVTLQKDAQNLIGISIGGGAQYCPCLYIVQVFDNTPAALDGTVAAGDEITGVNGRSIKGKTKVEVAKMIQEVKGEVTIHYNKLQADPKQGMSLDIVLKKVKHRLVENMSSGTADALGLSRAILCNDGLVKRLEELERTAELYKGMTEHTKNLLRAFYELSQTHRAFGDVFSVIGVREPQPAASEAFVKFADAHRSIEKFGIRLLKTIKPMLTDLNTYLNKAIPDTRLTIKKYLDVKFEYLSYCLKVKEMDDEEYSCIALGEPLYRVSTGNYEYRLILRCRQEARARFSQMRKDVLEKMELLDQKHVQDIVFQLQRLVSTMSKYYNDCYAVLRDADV

CC(C)(C)OC(=O)N1CCC[C@H]1C(=O)N1CCC(C(=O)N[C@H](C(=O)O)C2CCCC2)(c2ccc(Br)cc2)CC1 [BIO124]
IC50: 513 nM

Source: paper PMC5818740, “Lock and chop: A novel method for the generation of a PICK1 PDZ domain and piperidine‐based inhibitor co‐crystal structure” (Protein Science : A Publication of the Protein Society, 2018)
